Results reported in patent US9062070B2, “Inhibitors of the renal outer medullary potassium channel” (Merck Sharp & Dohme Corp., priority 2011, dated 2015).

What was measured:
hROMK (hKir1.1) = hROMK (hKir1.1) (Homo sapiens (Human), UniProt P48048); experiment: Thallium Flux Assay (ROMK channel functional thallium flux, FLIPR-Tetra); format: cell-based; conditions: HEK293 cells stably expressing hROMK (hKir1.1)
Procedure: HEK293 cells stably expressing hROMK (hKir1.1) were grown at 37° C. in a 10% CO2 humidified incubator in complete growth media: Dulbecco's Modified Eagle Medium supplemented with non-essential amino acids, Penicillin/Streptomycin/Glutamine, G418 and FBS. At >80% confluency, aspirate the media from the flask and rinse with 10 mL Calcium/Magnesium-free PBS. Add 5 mL of 1× trypsin (prepared in Ca/Mg Free PBS) to T-225 flask and return flask to 37° C./CO2 incubator for 2-3 minutes. To dislodge the cell, gently bang the side of the flask with your hand. Triturate the cells completely and then transfer the cells to 25 mL complete media. Centrifuge at 1,500 rpm for 6 min followed by resuspension in complete growth media and determine cell concentration. For typical re-seeding, 4E6 cells/T-225 flask will attain>80% confluency in 4 days. Under ideal growth conditions and appropriate tissue culture practices, this cell line is stable for 40-45 passages.
• FluxOR™ Reagent (Component A) • FluxOR™ Assay Buffer (Component B)—10× Concentrate • PowerLoad™ Concentrate (Component C)—100× Concentrate • Probenecid (Component D)—Lyophilized sample is kept at −20° C. Water soluble, 100× after solubilization in 1 mL water. Store at 4° C. • FluxOR™ Chloride-free Buffer (Component E)—5× Concentrate • Potassium sulfate (K2SO4) Concentrate (Component F)—125 mM in water. Store at 4° C. • Thallium sulfate (Tl2SO4) Concentrate (Component G)—50 mM in water. Store at 4° C. • DMSO (dimethyl sulfoxide, Component H)—1 mL (100%) Reagent Preparation: FluxOR Working Solutions • 1000× FluxOR™ Reagent: Reconstitute a vial of component A in 100 μl DMSO; Mix well; Store 10 μl aliquots at −20° C. • 1× FluxOR™ Assay Buffer: Dilute Component B 10-fold with water; Adjust pH to 7.4 with Hepes/NaOH; Filter and store at 4° C. • Probenecid/Assay Buffer: 100 mL of 1× FluxOR™ Assay Buffer; 1 mL of reconstituted component D; Store at 4° C. • Loading Buffer (per microplate): 10 μl 1000× FluxOR™ Reagent; 100 μl component C; 10 mL Probenecid/Assay Buffer • Compound Buffer (per microplate): 20 mL Probenecid/Assay Buffer; 0.3 mM ouabain (10 mM ouabain in water can be stored in amber bottle/aluminum foil at room temperature); Test compound • 1× FluxOR™ Chloride-Free Buffer: Prepare 1× working solution in water. Can be stored at room temperature • Stimulant Buffer (prepared at 5× final concentration in 1× FluxOR™ Chloride-Free Buffer): 7.5 mM Thallium sulfate and 0.75 mM Potassium sulfate (to give a final assay concentration of 3 mM Thallium/0.3 mM Potassium). Store at 4° C. when not in use. If kept sterile, this solution is good for months. Assay Protocol—
The ROMK channel functional thallium flux assay is performed in 384 wells, using the FLIPR-Tetra instrument. HEK-hKir1.1 cells are seeded in Poly-D-Lysine microplates and kept in a 37° C.-10% CO2 incubator overnight. On the day of the experiment, the growth media is replaced with the FluxOR™ reagent loading buffer and incubated, protected from light, at ambient temperature (23-25° C.) for 90 min. The loading buffer is replaced with assay buffer±test compound followed by 30 min incubation at ambient temperature, where the Thallium/Potassium stimulant is added to the microplate.
• 1. Seed HEK-hKir1.1 cells (50 μl at 20,000 cells/well) in 384-well PDL coated Microplates • 2. Allow cells to adhere overnight in humidified 37° C./10% CO2 incubator • 3. Completely remove cell growth media from microplate and replace with 25 μl loading buffer • 4. Incubate Microplate at room temperature, protected form light, for 90 min • 5. Remove loading buffer and replace with 25 μl 1× Assay Buffer±test compound. • 6. Incubate microplate at room temperature, protected form light, for 30 min • 7. At FLIPR-Tetra 384: Add stimulant (Thallium/Potassium) solution to microplate and monitor fluorescence. Excitation=400 nm, Emission=460 & 580 nm. Collect data for ˜10 min. Data Calculation—

Kir1.1 (ROMK1) = Kir1.1 (ROMK1) (Homo sapiens (Human), UniProt P48048); experiment: Electrophysiology Assay (whole cell voltage clamp, IonWorks Quattro); format: cell-based; conditions: Chinese hamster ovary cells stably expressing Kir1.1; block during voltage step to 0 mV
Chain of Kir1.1 (ROMK1) (P48048 whole entry): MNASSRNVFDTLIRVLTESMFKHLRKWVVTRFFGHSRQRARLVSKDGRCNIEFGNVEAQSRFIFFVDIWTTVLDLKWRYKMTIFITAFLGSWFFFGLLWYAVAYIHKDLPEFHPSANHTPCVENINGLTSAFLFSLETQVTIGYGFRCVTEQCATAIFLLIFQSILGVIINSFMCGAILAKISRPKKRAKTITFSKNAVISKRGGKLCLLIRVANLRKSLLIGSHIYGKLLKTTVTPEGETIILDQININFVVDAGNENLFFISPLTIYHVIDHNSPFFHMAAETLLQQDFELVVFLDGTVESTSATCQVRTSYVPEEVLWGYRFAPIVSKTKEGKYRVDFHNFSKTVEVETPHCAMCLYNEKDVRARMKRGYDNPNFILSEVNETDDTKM
Procedure: Block of Kir1.1 (ROMK1) currents was examined by whole cell voltage clamp (Hamill et. al. […] Prior to an experiment, Kir1.1 expression was induced by overnight incubation with 1 mM sodium butyrate. […] After centrifugation, the cell pellet was resuspended in approximately 4.0 mL of bath solution and placed in the IonWorks instrument. The intracellular solution consisted of (in mM): 80 K gluconate, 40 KCl, 20 KF, 3.2 MgCl2, 3 EGTA, 5 Hepes, pH 7.4. […] Amphotericin B (Sigma A-4888) was prepared as a 40 mg/mL solution in DMSO. Voltage protocols and current recordings were performed using the IonWorks HT software/hardware system. […] No correction for liquid junction potentials was used. The test pulse, consisting of a 100 ms step to 0 mV from a holding potential of −70 mV, followed by a 100 ms voltage ramp from −70 mV to +70 mV, was applied before and after a 6 min compound incubation period. Test compounds were prepared by diluting DMSO stock solutions into the bath solution at 3× the final concentration and placed in the instrument in 96-well polypropylene plates. Current amplitudes were measured using the IonWorks software. To assess compound potency, the fractional block during the voltage step to 0 mV was calculated in Microsoft Excel (Microsoft, Redmond, Calif.), and dose-response curves were fitted with Igor Pro 4.0 (WaveMetrics, Lake Oswego, Oreg.).

Chain of hROMK (hKir1.1) (P48048 whole entry): as above

| Compound | IC50 (hROMK (hKir1.1)) [µM] | IC50 (Kir1.1 (ROMK1)) [µM] |
| --- | --- | --- |
| N#Cc1c(F)ccc([C@@H]2CN3CCN(C(=O)C4CCc5nc(-n6cnnn6)ccc54)C[C@@H]3CO2)c1F (some centres unmarked) [Example 20] | 0.23 | 0.08 |
| N#Cc1c(F)ccc([C@H]2CN3CCN(C(=O)C4CCc5nc(-n6cnnn6)ccc54)C[C@@H]3CO2)c1F (some centres unmarked) [Example 21] | 0.24 | 0.08 |
| N#Cc1c(F)ccc([C@@H]2CN3CCN(C(=O)C4CCc5cc(-n6cnnn6)ncc54)C[C@H]3CO2)c1F (some centres unmarked) [Example 22] | 0.16 | 0.04 |
| N#Cc1c(F)ccc([C@H]2CN3CCN(C(=O)C4CCc5cc(-n6cnnn6)ncc54)C[C@@H]3CO2)c1F (some centres unmarked) [Example 23] | 0.54 | 0.15 |
| N#Cc1c(F)ccc([C@@H]2CN3CCN(C(=O)C4CCc5cc(-n6cnnn6)ncc54)C[C@@H]3CO2)c1F (some centres unmarked) [Example 24] | 0.11 | 0.2 |
| N#Cc1c(F)ccc([C@H]2CN3CCN(C(=O)C4CCc5cc(-n6cnnn6)ncc54)C[C@H]3CO2)c1F (some centres unmarked) [Example 25] | 0.1 | 0.06 |
| N#Cc1c(F)ccc([C@@H]2CN3CCN(C(=O)C4CCc5nc(-n6cnnn6)ccc54)C[C@H]3CO2)c1Cl (some centres unmarked) [Example 26] | 0.22 | 0.11 |
| N#Cc1c(F)ccc([C@@H]2CN3CCN(C(=O)C4CCc5nc(-n6cnnn6)ccc54)C[C@H]3CO2)c1Cl (some centres unmarked) [Example 27] | 0.23 | 0.12 |
| N#Cc1c(F)ccc([C@H]2CN3CCN(C(=O)C4CCc5nc(-n6cnnn6)ccc54)C[C@H]3CO2)c1Cl (some centres unmarked) [Example 28] | 0.22 | 0.12 |
| N#Cc1c(F)ccc([C@H]2CN3CCN(C(=O)C4CCc5nc(-n6cnnn6)ccc54)C[C@H]3CO2)c1Cl (some centres unmarked) [Example 29] | 0.45 | 0.14 |
| N#Cc1c(F)ccc([C@H]2CN3CCN(C(=O)C4CCc5nc(-n6cnnn6)ccc54)C[C@@H]3CO2)c1Cl (some centres unmarked) [Example 30] | 0.29 | 0.19 |
| N#Cc1c(F)ccc([C@@H]2CN3CCN(C(=O)C4CCc5cc(-n6cnnn6)ncc54)C[C@H]3CO2)c1Cl (some centres unmarked) [Example 31] | 0.11 | 0.08 |
| N#Cc1c(F)ccc([C@H]2CN3CCN(C(=O)C4CCc5cc(-n6cnnn6)ncc54)C[C@H]3CO2)c1Cl (some centres unmarked) [Example 32] | 0.13 | 0.07 |
| Cc1c([C@H]2CN3CCN(C(=O)C4CCc5nc(-n6cnnn6)ccc54)C[C@@H]3CO2)ccc(F)c1C#N (some centres unmarked) [Example 34] | 0.12 | 0.16 |
| Cc1c([C@H]2CN3CCN(C(=O)C4CCc5cc(-n6cnnn6)ncc54)C[C@H]3CO2)ccc(F)c1C#N (some centres unmarked) [Example 36] | 0.66 | 0.14 |
| Cc1c([C@@H]2CN3CCN(C(=O)C4CCc5cc(-n6cnnn6)cnc54)C[C@H]3CO2)ccc(F)c1C#N (some centres unmarked) [Example 37] | 0.81 | 0.24 |
| Cc1c([C@@H]2CN3CCN(C(=O)C4CCc5cc(-n6cnnn6)cnc54)C[C@H]3CO2)ccc(F)c1C#N (some centres unmarked) [Example 38] | 0.9 | 0.28 |

| Compound | IC50 (hROMK (hKir1.1)) [µM] | IC50 (Kir1.1 (ROMK1)) [µM] |
| --- | --- | --- |
| Cc1c([C@H]2CN3CCN(C(=O)C4CCc5cc(-n6cnnn6)cnc54)C[C@@H]3CO2)ccc(F)c1C#N (some centres unmarked) [Example 39] | 0.6 | 0.39 |
| Cc1c([C@H]2CN3CCN(C(=O)C4CCc5cc(-n6cnnn6)ncc54)C[C@@H]3CO2)ccc(F)c1C#N (some centres unmarked) [Example 40] | 0.27 | 0.12 |
| Cc1c([C@H]2CN3CCN(C(=O)C4CCc5cc(-n6cnnn6)ncc54)C[C@@H]3CO2)ccc(F)c1C#N (some centres unmarked) [Example 41] | 0.72 | 0.11 |
| Cc1c([C@@H]2CN3CCN(C(=O)C4CCc5cc(-n6cnnn6)ncc54)C[C@@H]3CO2)ccc(F)c1C#N (some centres unmarked) [Example 42] | 0.35 | 0.13 |
| Cc1c([C@@H]2CN3CCN(C(=O)C4CCc5cc(-n6cnnn6)ncc54)C[C@@H]3CO2)ccc(F)c1C#N (some centres unmarked) [Example 43] | 0.85 | 0.13 |
| Cc1c([C@@H]2CN3CCN(C(=O)C4CCc5cc(-n6cnnn6)ncc54)C[C@H]3CO2)ccc(F)c1C#N (some centres unmarked) [Example 44] | 0.17 | 0.17 |
| O=C1OCCc2cc([C@@H]3CN4CCN(C(=O)C5CCc6cc(-n7cnnn7)ncc65)C[C@H]4CO3)ccc21 (some centres unmarked) [Example 45] | 0.6 | 0.22 |
| COc1cc([C@H]2CN3CCN(C(=O)C4CCc5nc(-n6cnnn6)ccc54)C[C@H]3CO2)ccc1C#N (some centres unmarked) [Example 51] | 0.58 | 0.19 |
| COc1c([C@@H]2CN3CCN(C(=O)C4CCc5cc(-n6cnnn6)ncc54)C[C@H]3CO2)ccc(F)c1C#N (some centres unmarked) [Example 52] | 0.42 | 0.22 |
| COc1cc([C@@H]2CN3CCN(C(=O)C4CCc5nc(-n6cnnn6)ccc54)C[C@@H]3CO2)ccc1C#N (some centres unmarked) [Example 63] | 0.74 | 0.27 |
| N#Cc1c(F)ccc([C@@H]2CN3CCN(C(=O)C4CCc5nc(-n6cnnn6)ccc54)C[C@@H]3CO2)c1Cl (some centres unmarked) [Example 64] | 0.12 | 0.1 |
| N#Cc1c(F)ccc([C@@H]2CN3CCN(C(=O)C4CCc5nc(-n6cnnn6)ccc54)C[C@@H]3CO2)c1Cl (some centres unmarked) [Example 65] | 0.34 | 0.14 |
| N#Cc1cc([C@@H]2CN3CCN(C(=O)C4CCc5cc(-n6cnnn6)ncc54)C[C@H]3CO2)c(F)cc1F (some centres unmarked) [Example 68] | 0.2 | 0.2 |
| COc1c([C@@H]2CN3CCN(C(=O)C4CCc5cc(-n6cnnn6)ncc54)C[C@H]3CO2)ccc(C#N)c1F (some centres unmarked) [Example 70] | 0.5 | 0.1 |
| COc1ccc([C@H]2CN3CCN(C(=O)C4CCc5cc(-n6cnnn6)ncc54)C[C@@H]3CO2)c(C)c1C#N (some centres unmarked) [Example 74] | 0.5 | 0.28 |
| Cc1c([C@@H]2CN3CCN(C(=O)C4Cc5cnc(-n6cnnn6)nc5C4)C[C@@H]3CO2)ccc(F)c1C#N (some centres unmarked) [Example 75] | 0.25 | 0.15 |
| Cc1c([C@H]2CN3CCN(C(=O)C4Cc5cnc(-n6cnnn6)nc5C4)C[C@H]3CO2)ccc(F)c1C#N (some centres unmarked) [Example 76] | 0.46 | 0.13 |
